Assay results reported in patent US4542137A, “Alkylaminodesoxy-1.4;3.6-dianhydrohexitol nitrates substituted by purine bases and pharmaceutical compositions” (priority 1980, dated 1985).

Test system: mongrel dogs
Experiment: circulatory pharmacological effectiveness on narcotised dogs, intravenous
Type: in vivo, dog
[1] = dog i.v. ISDN/9c 1, 1d 0.5 mg/kg, 40 min
[2] = dog i.v. ISDN/9c 1, 1d 0.5 mg/kg, 50 min
[3] = dog i.v. ISDN/9c 1, 1d 0.5 mg/kg, 60 min
[4] = dog i.v. ISDN/9c 1, 1d 0.5 mg/kg, 90 min
[5] = dog i.v. ISDN/9c 1, 1d 0.5 mg/kg, 120 min
[6] = dog i.v. ISDN/9c 1, 1d 0.5 mg/kg, 150 min
[7] = dog i.v. ISDN/9c 1, 1d 0.5 mg/kg, 180 min
[8] = dog i.v., before administration (v)

`Cn1c(=O)c2c(ncn2CCCN[C@H]2CO[C@H]3[C@@H]2OC[C@@H]3O[N+](=O)[O-])n(C)c1=O` [Example 1d, 5-(3-Theophyllin-7-ylpropyl)-amino-5-desoxy-1.4;3.6-dianhydro-L-iditol 2-nitrate] was tested, and the “BFFem: blood flow in the A. femoralis referred to 20 kg body weight” value (shortened to “BFFem: blood flow”) [1] was 58.5 mL/min, the “HF: heart frequency” value [1] was 97.5 and the “HLL: heart capacity left, referred to 20 kg body weight” value (“HLL: heart capacity left, referred” below) [1] was 0.43 W. For the same molecule, the “HLR: heart capacity right, referred to 20 kg body weight” value (from here on “HLR: heart capacity right, referred”) [1] was 50.8 mW, the “HZV: heart minute volume, referred to 20 kg body weight” value (“HZV: heart minute volume, referred” below) [1] was 2.05 L/min and the “SV: beat volume, referred to 20 kg body weight” value (from here on “SV: beat volume, referred”) [1] was 21.5 mL. The “WAP: pulmonalis resistance, referred to 20 kg body weight” value (from here on “WAP: pulmonalis resistance, referred”) [1] was 0.50 U, the “WFem: moralis resistance, referred to 20 kg body weight” value (“WFem: moralis resistance, referred” for short) [1] was 0.25 KU and the “WTP: total peripheral resistance, referred to 20 kg body weight” value (shortened to “WTP: total peripheral resistance”) [1] was 6.62 U. For the same molecule, the “dp/dt: rate of pressure increase in the left ventricle” value (“dp/dt: rate of pressure increase” below) [1] was 2193.7 mm.Hg/sec, the “APdiast: diastolic aorta pressure” value [2] was 85.9 mm.Hg and the “APsyst: systolic aorta pressure” value [2] was 135.9 mm.Hg. The “BFFem: blood flow” value [2] was 62.2 mL/min, the “HF: heart frequency” value [2] was 96.2 and the “HLL: heart capacity left, referred” value [2] was 0.41 W. For the same molecule, the “HLR: heart capacity right, referred” value [2] was 47.3 mW, the “HZV: heart minute volume, referred” value [2] was 1.93 L/min and the “SV: beat volume, referred” value [2] was 20.5 mL. For the same molecule, the “WAP: pulmonalis resistance, referred” value [2] was 0.50 U, the “WFem: moralis resistance, referred” value [2] was 0.25 KU and the “WTP: total peripheral resistance” value [2] was 7.24 U. For the same molecule, the “dp/dt: rate of pressure increase” value [2] was 2006.2 mm.Hg/sec, the “APdiast: diastolic aorta pressure” value [3] was 88.5 mm.Hg and the “APsyst: systolic aorta pressure” value [3] was 136.8 mm.Hg. For the same molecule, the “BFFem: blood flow” value [3] was 62.6 mL/min, the “HF: heart frequency” value [3] was 95.5 and the “HLL: heart capacity left, referred” value [3] was 0.39 W. The “HLR: heart capacity right, referred” value [3] was 46.0 mW, the “HZV: heart minute volume, referred” value [3] was 1.82 L/min and the “LVEDP: end diastolic pressure in the left ventricle” value (from here on “LVEDP: end diastolic pressure”) [3] was 8.06 mm.Hg. For the same molecule, the “SV: beat volume, referred” value [3] was 19.4 mL, the “WAP: pulmonalis resistance, referred” value [3] was 0.46 U and the “WFem: moralis resistance, referred” value [3] was 0.26 KU. The “WTP: total peripheral resistance” value [3] was 7.90 U, the “dp/dt: rate of pressure increase” value [3] was 1968.7 mm.Hg/sec and the “APdiast: diastolic aorta pressure” value [4] was 92.8 mm.Hg. For the same molecule, the “APsyst: systolic aorta pressure” value [4] was 137.8 mm.Hg, the “BFFem: blood flow” value [4] was 57.4 mL/min and the “HF: heart frequency” value [4] was 92.5. The “HLL: heart capacity left, referred” value [4] was 0.34 W, the “HLR: heart capacity right, referred” value [4] was 36.7 mW and the “HZV: heart minute volume, referred” value [4] was 1.57 L/min. For the same molecule, the “LVEDP: end diastolic pressure” value [4] was 9.47 mm.Hg, the “SV: beat volume, referred” value [4] was 17.4 mL and the “WAP: pulmonalis resistance, referred” value [4] was 0.39 U. For the same molecule, the “WFem: moralis resistance, referred” value [4] was 0.29 KU, the “WTP: total peripheral resistance” value [4] was 9.39 U and the “dp/dt: rate of pressure increase” value [4] was 1743.7 mm.Hg/sec. For the same molecule, the “APdiast: diastolic aorta pressure” value [5] was 95.2 mm.Hg, the “APsyst: systolic aorta pressure” value [5] was 139.7 mm.Hg and the “BFFem: blood flow” value [5] was 49.9 mL/min. The “HF: heart frequency” value [5] was 96.5, the “HLL: heart capacity left, referred” value [5] was 0.35 W and the “HLR: heart capacity right, referred” value [5] was 34.9 mW. The “HZV: heart minute volume, referred” value [5] was 1.57 L/min, the “LVEDP: end diastolic pressure” value [5] was 9.47 mm.Hg and the “SV: beat volume, referred” value [5] was 17.0 mL. For the same molecule, the “WAP: pulmonalis resistance, referred” value [5] was 0.35 U, the “WFem: moralis resistance, referred” value [5] was 0.36 KU and the “WTP: total peripheral resistance” value [5] was 9.56 U. The “dp/dt: rate of pressure increase” value [5] was 1659.4 mm.Hg/sec, the “APdiast: diastolic aorta pressure” value [6] was 92.8 mm.Hg and the “APsyst: systolic aorta pressure” value [6] was 139.7 mm.Hg. The “BFFem: blood flow” value [6] was 49.5 mL/min, the “HF: heart frequency” value [6] was 104.5 and the “HLL: heart capacity left, referred” value [6] was 0.35 W. For the same molecule, the “HLR: heart capacity right, referred” value [6] was 36.9 mW, the “HZV: heart minute volume, referred” value [6] was 1.61 L/min and the “LVEDP: end diastolic pressure” value [6] was 10.12 mm.Hg. The “SV: beat volume, referred” value [6] was 15.9 mL, the “WAP: pulmonalis resistance, referred” value [6] was 0.37 U and the “WFem: moralis resistance, referred” value [6] was 0.37 KU. The “WTP: total peripheral resistance” value [6] was 8.10 U, the “dp/dt: rate of pressure increase” value [6] was 1640.6 mm.Hg/sec and the “APdiast: diastolic aorta pressure” value [7] was 90.9 mm.Hg. The “APsyst: systolic aorta pressure” value [7] was 137.8 mm.Hg, the “BFFem: blood flow” value [7] was 50.9 mL/min and the “HF: heart frequency” value [7] was 114.0. The “HLL: heart capacity left, referred” value [7] was 0.37 W, the “HLR: heart capacity right, referred” value [7] was 38.3 mW and the “HZV: heart minute volume, referred” value [7] was 1.73 L/min. For the same molecule, the “LVEDP: end diastolic pressure” value [7] was 10.5 mm.Hg, the “SV: beat volume, referred” value [7] was 15.5 mL and the “WAP: pulmonalis resistance, referred” value [7] was 0.32 U. For the same molecule, the “WFem: moralis resistance, referred” value [7] was 0.32 KU, the “WTP: total peripheral resistance” value [7] was 8.13 U and the “dp/dt: rate of pressure increase” value [7] was 1621.9 mm.Hg/sec. For the same molecule, the “APdiast: diastolic aorta pressure” value [8] was 76.9 mm.Hg, the “APsyst: systolic aorta pressure” value [8] was 152.8 mm.Hg and the “BFFem: blood flow” value [8] was 51.5 mL/min. The “HF: heart frequency” value [8] was 101.2, the “HLL: heart capacity left, referred” value [8] was 0.50 W and the “HLR: heart capacity right, referred” value [8] was 67.1 mW. The “HZV: heart minute volume, referred” value [8] was 2.35 L/min, the “LVEDP: end diastolic pressure” value [8] was 7.50 mm.Hg and the “PAP: average pressure in the A. pulmonalis” value [8] was 15.59 mm.Hg. The “SV: beat volume, referred” value [8] was 23.4 mL, the “WAP: pulmonalis resistance, referred” value [8] was 0.46 U and the “WFem: moralis resistance, referred” value [8] was 0.29 KU. For the same molecule, the “WTP: total peripheral resistance” value [8] was 5.78 U, the “dp/dt: rate of pressure increase” value [8] was 1903.1 mm.Hg/sec and the “PRV: pressure in the right atrium” value (dog, in vivo, iv) was 3.09. For the same molecule, the “HF: heart frequency” value (iv, 0.5 mg/kg) was 103.7 and the “dp/dt: rate of pressure increase” value (iv, 0.5 mg/kg) was 2306.2 mm.Hg/sec.
